From patent US20080280939A1, “Combination of Organic Compounds” (priority 2004, published 2008)

What was measured:
[1] = 4-week toxicity study in rats; format: in vivo
Protocol: (§1) Rapamycin or derivatives thereof are well tolerated at dosages required for use in accordance with the present invention. For example, the NTEL for Compound A in a 4-week toxicity study is 0.5 mg/kg/day in rats and 1.5 mg/kg/day in monkeys.

[2] = 4-week toxicity study in monkeys; format: in vivo
Protocol: as §1

Compound: CO[C@H]1C[C@@H]2CC[C@@H](C)[C@@](O)(O2)C(=O)C(=O)N2CCCC[C@H]2C(=O)O[C@H]([C@H](C)C[C@@H]2CC[C@@H](OCCO)[C@H](OC)C2)CC(=O)[C@H](C)/C=C(\C)[C@@H](O)[C@@H](OC)C(=O)[C@H](C)C[C@H](C)/C=C/C=C/C=C/1C [Compound A, 40-0-(2-hydroxyethyl)-rapamycin]
- NTEL [1]: 0.5 mg/kg/day
- NTEL [2]: 1.5 mg/kg/day
